According to patent US7893260B2, “Substituted quinazolin-4-one compounds for antagonizing TRPV3 function” (priority 2005, dated 2011):

How the values were obtained:
rat TRPV3 = target: T1, rat TRPV3 (Rattus norvegicus, UniProt Q4QYD9); test: Whole-cell patch clamp, cells expressing rat TRPV3; assay type: cell-based; details: rat TRPV3 IC50 converted to mass concentration
T1 construct: expressed in transfected cells
T1 sequence (Q4QYD9 1-791): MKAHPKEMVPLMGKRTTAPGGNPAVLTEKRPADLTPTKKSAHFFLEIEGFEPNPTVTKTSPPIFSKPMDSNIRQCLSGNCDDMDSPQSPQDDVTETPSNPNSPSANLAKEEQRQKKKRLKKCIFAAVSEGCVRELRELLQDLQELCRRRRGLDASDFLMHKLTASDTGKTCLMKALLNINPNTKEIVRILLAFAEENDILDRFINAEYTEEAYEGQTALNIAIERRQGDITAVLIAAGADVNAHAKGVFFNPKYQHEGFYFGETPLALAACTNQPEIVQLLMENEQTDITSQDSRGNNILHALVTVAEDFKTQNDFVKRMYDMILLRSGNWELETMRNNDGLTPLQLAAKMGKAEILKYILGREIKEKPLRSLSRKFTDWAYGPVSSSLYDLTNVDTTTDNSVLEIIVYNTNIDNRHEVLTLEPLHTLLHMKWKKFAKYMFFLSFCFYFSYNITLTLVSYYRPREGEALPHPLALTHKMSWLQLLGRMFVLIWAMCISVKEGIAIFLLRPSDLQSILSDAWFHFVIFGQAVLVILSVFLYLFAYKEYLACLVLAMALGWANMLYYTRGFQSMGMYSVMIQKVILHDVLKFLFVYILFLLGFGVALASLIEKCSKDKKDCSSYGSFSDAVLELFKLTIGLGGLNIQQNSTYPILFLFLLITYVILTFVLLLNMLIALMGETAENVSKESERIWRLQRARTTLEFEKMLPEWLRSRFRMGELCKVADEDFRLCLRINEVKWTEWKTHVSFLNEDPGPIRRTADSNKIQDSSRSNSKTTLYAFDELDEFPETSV
Description: (§1) Whole-cell patch clamp experiments permit the detection of currents through the TRPV3 channel in the cell line described above. A glass electrode is brought into contact with a single cell and the membrane is then ruptured, permitting control of the voltage of the cell membrane and measurement of currents flowing across the membrane using the amplifier attached to the electrode. A perfusion system permits control of the extracellular solution, including the addition of blockers and activators of the current. The current can be activated by heating this solution to 28° C. or warmer or by addition of 20 μM 2-APB to the solution.
(§2) TRPV3 cells were induced 20-48 hours, removed from growth plates, and replated at low density (to attain good single-cell physical separation) on glass coverslips for measurement. In some cases, cells were grown in low density overnight on glass coverslips. Patch clamp recordings were made in the whole-cell mode with a holding potential of −40 mV. […] Currents elicited were quantified at −80 mV and +80 mV. The internal solution consisted of 140 mM cesium aspartate, 10 mM EGTA, 2.27 mM MgCl2, 1.91 mM CaCl2 and 10 mM HEPES, pH to 7.2 with KOH; with 50 nM calculated free Ca^2+. […]
(§3) The plasma levels of a TRPV3 inhibitor (compound 82) were determined via HPLC/MS/MS following administration to male Sprague-Dawley rats.

[1] = tested on: carrageenan model of acute inflammatory pain; test: Carrageenan model of acute inflammatory pain (thermal hyperalgesia, Hargreaves); assay type: in vivo, rats
Description: As outlined above, the carrageenan model is a model of acute inflammatory pain. As such, it may be used to evaluate effectiveness in relieving pain caused by inflammation, for example, pain due to arthritis.
Briefly, naive rats were pretested for sensitivity to a heat stimulus using the Hargreaves apparatus. The next day, 100 μL of λ-carrageenan was injected into the plantar surface of the right hindpaw approximately 4.5 hours before testing. 30-60 minutes before testing the rats were injected intraperitoneally with vehicle or drug (to evaluate the efficacy of a TRPV3 inhibitor administered IP) or were administered vehicle or drug orally (PO; to evaluate the efficacy of a TRPV3 inhibitor administered orally).
In this study, the drug administered was either a TRPV3 inhibitor (compound 82), the TRPV1 inhibitor, A-425619 (produced by Abbott; maximal efficacious dose, 40 mg/kg IP; El Kouhen et al, 2005, J Pharmacol Exp Ther 314: 400-4091; Honore et al., 2005, J Pharmacol Exp Ther 314: 410-421), or the non-steroidal anti-inflammatory diclofenac. Following administration of both carrageenan and drug or vehicle control, the thermal escape latency was measured. Data are expressed as a percentage comparing the recorded Paw Withdrawal Latencies (PWLs) in seconds to that pre-carrageenan administration.

[2] = Plasma levels / pharmacokinetics after IV or oral administration; assay type: in vivo, male Sprague-Dawley rats; details: PO suspension 50 mg/kg, rat
Description: as §3
To evaluate pharmacokinetic properties of this TRPV3 inhibitor, rats were administered a single intravenous (IV) bolus dose of […] or an oral dose of a suspension of 50 mg/kg. For intraveneous administration, the TRPV3 inhibitor solution was formulated in PBS/NaOH, pH 10.5, at a target concentration of 0.25 mg/mL. This solution was administered as a rapid bolus (2-3 seconds) at a dose volume of 4 mL/kg via the tail vein of conscious rats or via a jugular vein catheter in anesthetized rats. For oral administration, the TRPV3 inhibitor was formulated as a uniform suspension in CMC (carboxymethylcellulose) at a target concentration of 5 mg/mL, and administered by oral gavage at a dose volume of 10 mL/kg to conscious rats.

human TRPV3 = target: T2, human TRPV3 (Homo sapiens, UniProt Q8NET8); test: Whole-cell patch clamp, cells expressing human TRPV3; assay type: cell-based; details: human TRPV3 IC50 converted to mass concentration
T2 construct: expressed in transfected cells; host or cells: HEK293/TREx (Invitrogen), tetracycline-inducible
T2 sequence (Q8NET8 1-790): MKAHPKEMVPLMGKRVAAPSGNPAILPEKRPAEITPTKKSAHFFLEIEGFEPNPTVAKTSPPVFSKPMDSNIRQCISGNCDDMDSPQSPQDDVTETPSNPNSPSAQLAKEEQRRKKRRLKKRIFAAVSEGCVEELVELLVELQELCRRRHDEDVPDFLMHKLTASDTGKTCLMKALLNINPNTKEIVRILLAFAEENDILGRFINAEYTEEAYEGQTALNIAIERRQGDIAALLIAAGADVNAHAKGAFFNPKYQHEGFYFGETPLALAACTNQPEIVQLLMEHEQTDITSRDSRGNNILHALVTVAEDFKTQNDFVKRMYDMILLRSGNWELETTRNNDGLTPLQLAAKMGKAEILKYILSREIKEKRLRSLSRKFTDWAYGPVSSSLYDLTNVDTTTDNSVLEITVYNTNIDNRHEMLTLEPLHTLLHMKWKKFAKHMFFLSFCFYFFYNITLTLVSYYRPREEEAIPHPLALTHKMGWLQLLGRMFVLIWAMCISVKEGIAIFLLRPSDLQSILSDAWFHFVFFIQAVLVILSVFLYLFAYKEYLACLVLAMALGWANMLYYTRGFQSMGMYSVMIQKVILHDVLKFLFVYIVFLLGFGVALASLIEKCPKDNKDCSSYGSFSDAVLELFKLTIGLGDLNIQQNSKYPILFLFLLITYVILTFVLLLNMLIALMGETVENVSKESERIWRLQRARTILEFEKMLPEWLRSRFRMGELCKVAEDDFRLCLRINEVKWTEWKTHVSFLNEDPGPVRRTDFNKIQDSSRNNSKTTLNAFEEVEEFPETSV
Description: as §1, §2, §3

[3] = Plasma, brain and CSF levels after IP or PO administration; assay type: in vivo; details: 0.5, 1, 4 hours post IP 200 or 50 mg/kg or PO 200 mg/kg, rats
Description: For each time point evaluated, plasma levels are depicted by the left-most bar, brain levels are depicted by the center bar, and CSF levels are depicted by the right-most bar. […] For each time point evaluated, plasma levels are depicted by the left-most bar, brain levels are depicted by the center bar, and CSF levels are depicted by the right-most bar. […] For each time point evaluated, plasma levels are depicted by the left-most bar, brain levels are depicted by the center bar, and CSF levels are depicted by the right-most bar.

COc1cccc(/C=C/c2nc3ccccc3c(=O)n2-c2ccccc2)c1O [compound 82]
effective concentration corresponding to IC50 (rat TRPV3): ~0.105 mg/L
reduction of thermal hyperalgesia in carrageenan model ([1]; IP, 50 mg/kg): effective
reduction of thermal hyperalgesia in carrageenan model ([1]; IP, 200 mg/kg): effective
reduction of thermal hyperalgesia in carrageenan model ([1]; oral, 200 mg/kg): effective
reducing pain in the carrageenan model ([1]; rats, thermal hyperalgesia): efficacious in reducing pain
estimated half-life (T1/2) [2]: one
effective concentration corresponding to IC50 (human TRPV3): approximately 94 ng/mL
detection in plasma, brain and CSF (central penetration) [3]: detected not only in plasma, but also in brain and CSF
